Source: publication PMC2216936 (The Journal of General Physiology, 1995)

How the values were obtained:
[1] = tested on: voltage-gated sodium channel (GH3 cells; isoform not stated); test: whole-cell voltage clamp, block of peak INa; format: cell-based
[2] = target: voltage-gated sodium channel (sheep brain synaptoneurosomes; isoform not stated); test: inhibition of [3H]-BTX-B radioligand binding at […] C; set-up: species or system Ovis aries

CCCCN(CCCC)CCNC(=O)c1ccc(N=[N+]=[N-])cc1 [DNB-AB, N-(2-di-N-butyl-aminoethyl)-4-azidobenzamide]
IC50 [1]: 27 µM | IC50 [2]: 3.3 µM
